Assay results published in paper PMC10605077, “In Vitro and In Silico Antiviral Activity of Di-Halogenated Compounds Derived from L-Tyrosine against Human Immunodeficiency Virus 1 (HIV-1)” (Current Issues in Molecular Biology, 2023).
“Also recorded” adds a separate entry of the source. Read-outs that look alike come from different tables or passages of the source.

How the values were obtained:
HIV-1IIIB (X4) = assay: Anti-HIV activity in infected TZM-bl cells (luciferase), pre- and post-infection treatment; type: cell-based, Human Immunodeficiency Virus Type 1 (HIV-1); settings: for anti-HIV activity against X4 strain in words: HIV-1IIIB; for inhibition at 18 µM / inhibition at 37 µM / inhibition at 75 µM / inhibition at 150 µM: Human immunodeficiency virus 1, TZM-bl, read-out: Percentage inhibition of HIV-1IIIB (X4 strain) replication
Method: (§1) TZM-bl cells were plated in a flat-bottom 96-well plate (Corning Inc., Corning, New York, NY, USA) at the concentration of 1.2 × 10^5 cells/well and incubated for 24 h at 37 °C before the addition or not of each compound at non-cytotoxic concentrations (pre-infection treatment). Then, 1 h later the treatment was removed, and the infection was performed by adding 10 ng/mL of HIV-1IIIB p24 (X4) or 2 ng/mL of HIV-1 BaL (R5). After 3 h, the virus was removed and washed, and the compound dilutions were added again (post-infection treatment). Additionally, three wells were left for the negative control (cells without treatment or infection), the positive control of infection (cells infected with the virus without treatment), and the positive control of inhibition (AZT). Antiviral activity was quantified 48 h after treatment by measuring luciferase activity, which is directly proportional to the number of infectious virus particles in the sample [23]. The luciferase activity was quantified via luminescence emitted by the cells using Bright-GloTM Luciferase Assay System (Promega Corp., Madison, WI, USA), following the manufacturer’s instructions. Briefly, 100 μL of the reagent was added to 100 μL of TZM-bl cells and incubated for at least 2 min, protected from light. Relative light units (RLUs) were measured using the multi-mode plate reader (Thermo ScientificTM VarioskanTM LUX). Each experimental condition was performed in triplicate in two independent experiments (n = 6). The percentage inhibition was calculated as follows: 100 − (RLU of treated cells − RLU of uninfected cells/RLU of infection control − RLU of uninfected cells) × 100.

HIV-1 BaL (R5) = assay: as above; type: cell-based, Human Immunodeficiency Virus Type 1 (HIV-1); settings: for anti-HIV activity against R5 strain in words: HIV-1 BaL; for inhibition at 37 µM / inhibition at 75 µM / inhibition at 150 µM / inhibition at 300 µM / inhibition at 18 µM: read-out: Percentage inhibition of HIV-1 BaL replication; for IC50: 48 h, HIV-1 BaL (R5), luciferase; for SI: selectivity index against HIV-1 BaL (CC50 and IC50 of Table 3)
Method: as §1

MTT cytotoxicity assay = type: cell-based; settings: human; TZM-bl cells, MTT, 48 h
Method: The in vitro cytotoxic effect of the di-halogenated compounds on TZM-bl cells was determined with the MTT (3-(4,5-Dimethylthiazol-2-yl)-2,5-diphenyltetrazolium bromide) assay (Sigma-Aldrich, St. Louis, MO, USA). For this purpose, 1.2 × 10^5 cells/well were seeded in 96-well plates, which were incubated at 37 °C and 5% CO2 for 24 h. DMEM was used as a negative control and serial two-fold dilutions of the compounds were performed at 9.37 to 300 μM in DMEM supplemented with 5% FBS. A total of 100 μL/well of each dilution was added and incubated for 48 h. Subsequently, the cells were washed 2 times with 1X PBS, and 30 μL of MTT solution (2 mg/mL) was added and incubated for 2 h at 37 °C, in a light-protected culture. Then, 100 µL of DMSO was added to dissolve the formazan crystals, placed in shaking for 15 min, and absorbance reading was performed at 570 nm, using the Microplate Spectrophotometer (Thermo Scientific™ Multiskan™ GO, Waltham, MA, USA). Two independent experiments evaluated each experimental condition in quadruplicate (n = 8). The percentage of viability was calculated concerning the absorbance of the controls without a compound (100% viability). The 50% cytotoxic concentration was defined as the concentration of each compound that can reduce cell viability to 50% of the untreated cell control. CC50 was calculated and analyzed with GraphPad Prism version 8.0.1 (GraphPad Software, Inc., San Diego, CA, USA).

[1] = Viability assay of PBMC, flow cytometry with viability dye; type: cell-based, Human; settings: human, PBMC stimulated with PHA and IL-2; all concentrations tested (18.75 μM up to 150 μM), 7 days; read-out: viability level on PBMCs
Method: PBMCs were thawed and let in the culture in RPMI with 10% fetal bovine serum (FBS) (Gibco, Grand Island, NY, USA) for 24 h before each experiment. Cells were stimulated for 48 h with 8 μg/mL of Phytohemagglutinin-PHA (Sigma-Aldrich, St. Louis, MO, USA) and 50 UI/mL of IL-2 (Peprotech, Rocky Hill, CT, USA). In the presence of various concentrations of di-halogenated compounds derived from L-Tyrosine, 2 × 10^5 cells per well were treated and resuspended in 200 µL of fresh medium with 20 UI/mL of IL-2 and incubated in 96-well culture plates for 7 days. After 7 days post-treatment, cell viability was determined using flow cytometry. Briefly, cells were stained with fixable viability dye eFluor 506 (eBioscience, Leicestershire, UK) as detailed in the manufacturer’s protocol for 30 min in the dark. Later, cells were washed and resuspended in PBS, and the percentage of viable cells was measured instead in the LS Fortessa cytometer (BD Biosciences, Franklin Lakes, NJ, USA). Data were analyzed using FlowJo version 10.5.3 (FlowJo, LLC, Ashland, OR, USA).

[2] = system: HIV-GFP-VSV-G reporter virus; assay: microbe, parasite or virus in culture; type: cell-based, HIV-1
[3] = Human immunodeficiency virus 1, BAL, 37 µM, TZM-bl cells
[4] = Human immunodeficiency virus 1, BAL, 75 µM, TZM-bl cells
[5] = Human immunodeficiency virus 1, BAL, 150 µM, TZM-bl cells
[6] = Human immunodeficiency virus 1, BAL, TZM-bl cells
[7] = Human immunodeficiency virus 1, BAL, 18 µM, TZM-bl cells
[8] = Human immunodeficiency virus 1, BAL, TZM-bl
[9] = Human immunodeficiency virus 1, BAL, TZM-bl, TZM-bl cells

Compound	anti-HIV activity against X4 strain in words (HIV-1IIIB (X4); TZM-bl cells)	inhibition at 18 µM (HIV-1IIIB (X4); 18 µM, TZM-bl cells) [%]	inhibition at 37 µM (HIV-1IIIB (X4); 37 µM, TZM-bl cells) [%]	inhibition at 75 µM (HIV-1IIIB (X4); 75 µM, TZM-bl cells) [%]	inhibition at 150 µM (HIV-1IIIB (X4); 150 µM, TZM-bl cells) [%]	anti-HIV activity against R5 strain in words (HIV-1 BaL (R5); TZM-bl cells)	inhibition at 37 µM (HIV-1 BaL (R5); [3]) [%]	inhibition at 75 µM (HIV-1 BaL (R5); [4]) [%]	inhibition at 150 µM (HIV-1 BaL (R5); [5]) [%]	CC50 at 48 h (MTT cytotoxicity assay) [µM]	inhibition at 18 µM (HIV-1 BaL (R5); [7]) [%]	inhibition at 18 µM (HIV-1IIIB (X4)) [%]	inhibition at 37 µM (HIV-1IIIB (X4)) [%]	inhibition at 75 µM (HIV-1IIIB (X4)) [%]	inhibition at 150 µM (HIV-1IIIB (X4)) [%]	inhibition at 18 µM (HIV-1 BaL (R5); [8]) [%]	inhibition at 37 µM (HIV-1 BaL (R5); [8]) [%]	inhibition at 75 µM (HIV-1 BaL (R5); [8]) [%]	inhibition at 150 µM (HIV-1 BaL (R5); [8]) [%]	further results
C[N+](C)(C)[C@@H](Cc1cc(Cl)c(O)c(Cl)c1)C(=O)O [TDC-3M]	no antiviral activity	-111	9.6	8.1	15.1	showed antiviral activity	20.4	39.7	29.6	> 300										inhibition at 300 µM (HIV-1 BaL (R5); [6]): 25.9%
COc1c(Cl)cc(CC[N+](C)(C)C)cc1Cl [YODC-3M]		3.2	-5.8	-8.6	0.5		-7.7	-1	-1.3		-19.7									
C[N+](C)(C)[C@@H](Cc1cc(Br)c(O)c(Br)c1)C(=O)O [TDB-3M]	did not inhibit the replicative activity	2.7	21.6	-15.7	-22.4	did not inhibit the replicative activity	-9.6	-18	-61.9		-20.5									
CN(C)CCc1cc(Cl)c(O)c(Cl)c1 [YDC-2M]	had no activity					had no activity						15.1	-22	22.6	29.1	-4.1	8.8	19.1	-2.8	
CN(C)[C@@H](Cc1cc(Cl)c(O)c(Cl)c1)C(=O)O [TDC-2M]	no antiviral activity	-4.8	-15.4	-39.5	-72.2	showed antiviral activity	33	37.9	32.3	~174										IC50 (HIV-1 BaL (R5); [9]): 141 µM; inhibition at 300 µM (HIV-1 BaL (R5); [6]): 47.3%; SI (HIV-1 BaL (R5)): ~1.24
COc1c(Br)cc(CC[N+](C)(C)C)cc1Br [YODB-3M]		-3.1	-10.5	20.3	13.1		-14.1	-9	9.3	78.7	-25.1									
CN(C)CCc1cc(Br)c(O)c(Br)c1 [YDB-2M]	had no antiviral activity					had no antiviral activity; also recorded: did not show significant anti-HIV activity						14.6	-7	9.8	-20.7	26.1	2.7	7	-45.8	
COc1c(Br)cc(C[C@@H](C(=O)O)[N+](C)(C)C)cc1Br [TODB-3M]	showed no activity	12	-41.1	3.2	-34	showed no activity	-43.3	-17.7	-9.2		-26									
C[N+](C)(C)CCc1cc(Cl)c(O)c(Cl)c1 [YDC-3M]		41	-25.7	31.2	29.9		42.3	33.4	27.5	39.9	50.2									viability at 7 days [1]: > 90%; IC50 (HIV-1IIIB (X4); Human immunodeficiency virus 1, HIV-1IIIB (X4), TZM-bl cells, luciferase, 48 h): 22.3 µM; IC50 (HIV-1 BaL (R5); TZM-bl cells): 37.7 µM; IC50 (HIV-1 BaL (R5); [9]): 37.2 µM; SI (HIV-1 BaL (R5)): 1.07; inhibition at 150 µM ([2]; Human immunodeficiency virus 1, TZM-bl, read-out: percentage inhibition of HIV-GFP-VSV-G replication): 12.5%
COc1c(Cl)cc(C[C@@H](C(=O)O)[N+](C)(C)C)cc1Cl [TODC-3M]		-1.3	-6.9	26.7	14.9		54.9	37.6	46.7	74.9										viability at 7 days [1]: > 90%; inhibition at 300 µM (HIV-1 BaL (R5); [6]): 59.9%; percentage inhibition of HIV-GFP-VSV-G replication [2]: 19.5%
COc1c(Br)cc(CCN(C)C)cc1Br [YODB-2M]												-24.6	-20	-20.2	-17	-51.1	-73.9	-88.5	-14.9	
CN(C)[C@@H](Cc1cc(Br)c(O)c(Br)c1)C(=O)O [TDB-2M]	did not inhibit the replicative activity	-1.3	15.9	-2.9	2.9	did not inhibit the replicative activity	-45.5	-19.2	-51.9		-57.9									
COc1c(Cl)cc(CCN(C)C)cc1Cl [YODC-2M]												-0.3	2.3	-2.2	2.5	24.5	12.2	26.9	-96.2	
